The nature of the series: Aqueous solubility of dyes and dye composition. To be noted: aqueous solubility at 20° C. and pH 9.5. It counts as physicochemical. How it is done:
The aqueous solubility of Composition (1), Dye (A) and Dye (B) at 20° C. and pH 9.5 is: […]

With `COc1cc(N=Nc2cccc(S(=O)(=O)O)c2)ccc1NC(=O)Nc1ccc(N=Nc2cccc(S(=O)(=O)O)c2)cc1OC` [Dye (A), CI Direct Yellow 132], the “Solubility (%)” value was determined as 10.7%.

The values are drawn from US6551390B1, “Composition containing two different disazodyestuffs useful for ink jet recording” (Avecia Limited, priority 1998, dated 2003).
